For eleven compounds, EC50, CC50 and melting point results are on record in paper PMC6476926, “Dichloro-Phenyl-Benzotriazoles: A New Selective Class of Human Respiratory Syncytial Virus Entry Inhibitors” (Frontiers in Chemistry, 2019).

In data set [1] the test system is BVDV. In words: microbe, parasite or virus in culture. In kind it is cell-based. Particulars: Bovine viral diarrhea virus isolates and strains, MDBK, read-out: EC50 BVDV.
For data set [2], the system named is RSV. The data set can be described thus: microbe, parasite or virus in culture. In kind it is cell-based, Human Respiratory Syncytial Virus (RSV) strain A2. As to conditions: human respiratory syncytial virus, Vero 76, read-out: EC50 RSV.
Data set [3] concerns HIV-1IIIB. In words: microbe, parasite or virus in culture. In kind it is cell-based, Human Immunodeficiency Virus type-1 (HIV-1). Particulars: Human immunodeficiency virus 1, MT4, read-out: EC50 HIV-1IIIB.
The test system of data set [4] is Reo-1. The data set can be described thus: microbe, parasite or virus in culture. In kind it is cell-based, Reovirus type-1 (Reo-1). Particulars: Reovirus sp., BHK, read-out: EC50 Reo-1.
The nature of data set [5]: Cytotoxicity, MTT method, MT-4 cells. Particulars: human.
The subject of data set [6] is YFV. In words: microbe, parasite or virus in culture. It counts as cell-based. Particulars: Yellow fever virus, BHK, read-out: EC50 YFV.
Data set [7] can be described thus: in vitro. As to conditions: cattle (Bos taurus).
The nature of data set [8]: Cytotoxicity, MTT method, Vero-76 cells. Particulars: African green monkey (Cercopithecus aethiops). For orientation: Tetrazolium dyes change colour on reduction, which living cells bring about.
Data set [9] relates to Sb-1, VSV, VV, HSV-1. The data set can be described thus: organism not typed. Particulars: Vero 76, read-out: EC50 Sb-1, VSV, VV, HSV-1. In kind it is cell-based.
Data set [10] deals with CV-B5. The data set can be described thus: microbe, parasite or virus in culture. As to conditions: Enterovirus B, CVB5, Vero 76, read-out: EC50 CV-B5. In kind it is cell-based, Human Enterovirus B [coxsackie type B5 (CV-B5)].
The nature of data set [11]: Cytotoxicity, MTT method, BHK cells. As to conditions: Syrian hamster (Mesocricetus auratus).

The compound `O=C(Nc1ccc(-n2nnc3cc(Cl)c(Cl)cc32)cc1)c1ccc(Cl)cc1` [7f, N-[4-(5,6-dichloro-1H-benzo[d][1,2,3]triazol-1-yl)phenyl] 4-chlorobenzamide] yielded a melting point of 234 to 236 °C. Besides, the EC50 in data set [1] was more than 100 µM. The EC50 in [2] turned out to be 8 µM. Also, in data set [3], the EC50 is more than 100 µM. Moreover, the EC50 in data set [4] is more than 84 µM. This compound had a CC50 in [5] of more than 100 µM. The EC50 in data set [6] is more than 84 µM. The CC50 in data set [7] is more than 100 µM. The CC50 at 5 days in [8] is more than 100 µM. In addition, the EC50 in data set [9] was more than 100 µM. In [10], the half-maximal effective concentration (EC50) was more than 100 µM. This compound also had a CC50 in data set [11] of 84 µM.

`CC(=O)N(C(C)=O)c1ccc(-n2nc3cc(Cl)c(Cl)cc3n2)cc1` [6d, N-acetyl-N-[4-(5,6-dichloro-2H-benzo[d][1,2,3]triazol-2-yl)phenyl]acetamide] showed a melting point of 224 to 226 °C. Also, the 50% effective concentration (EC50) in data set [1] is more than 100 µM. In addition, the EC50 in data set [2] was 40 µM. For the same compound, in data set [3], the 50% effective concentration (EC50) was more than 33 µM. Besides, the EC50 in [4] is more than 100 µM. The CC50 in data set [5] was 33 µM. For the same compound, the concentration for a half-maximal effect (EC50) in [6] was more than 72 µM. Besides, the CC50 in data set [7] came out at 100 µM. The compound further gave a CC50 at 5 days in data set [8] of more than 100 µM. Moreover, the concentration for a half-maximal effect (EC50) in [9] was more than 100 µM. For the same compound, in data set [10], the EC50 is more than 100 µM. Also, the CC50 in data set [11] amounted to 72 µM.

Compound `CC(=O)Nc1ccc(-n2nc3cc(Cl)c(Cl)cc3n2)cc1` [6a, N-[4-(5,6-dichloro-2H-benzo[d][1,2,3]triazol-2-yl)phenyl]acetamide] yielded a melting point of more than 290 °C. Moreover, the EC50 in data set [1] was more than 100 µM. For the same compound, the 50% effective concentration (EC50) in data set [2] is more than 100 µM. Moreover, the concentration for a half-maximal effect (EC50) in data set [3] was more than 100 µM. In addition, the concentration giving a half-maximal response (EC50) in data set [4] was more than 100 µM. This compound registered a CC50 in data set [5] of more than 100 µM. For the same compound, in data set [6], the EC50 was more than 100 µM. In data set [7], this compound gave a CC50 of more than 100 µM. Besides, the CC50 at 5 days in data set [8] was more than 100 µM. The EC50 in data set [9] is more than 100 µM. In data set [10], the concentration giving a half-maximal response (EC50) is more than 100 µM. In data set [11], this compound showed a CC50 of more than 100 µM.

`CCNC(=O)Nc1ccc(-n2nc3cc(Cl)c(Cl)cc3n2)cc1` [10a, 1-[4-(5,6-dichloro-2H-benzo[d][1,2,3]triazol-2-yl)phenyl]-3-ethylurea] came in with a melting point of more than 290 °C. Also, the EC50 in data set [1] is more than 100 µM. Also, the concentration giving a half-maximal response (EC50) in data set [2] was more than 100 µM. Further, the EC50 in data set [3] was more than 100 µM. For the same compound, the EC50 in data set [4] was more than 100 µM. This compound also registered a CC50 in [5] of more than 100 µM. For the same compound, the 50% effective concentration (EC50) in [6] is more than 100 µM. This compound also had a CC50 in [7] of more than 100 µM. The same compound registered a CC50 at 5 days in data set [8] of more than 100 µM. The EC50 in data set [9] is more than 100 µM. Also, the EC50 in data set [10] was more than 100 µM. For the same compound, the CC50 in data set [11] is more than 100 µM.

Turning to `CCC(=O)Nc1ccc(-n2nnc3cc(Cl)c(Cl)cc32)cc1` [5b, N-[4-(5,6-dichloro-1H-benzo[d][1,2,3]triazol-1-yl)phenyl]propionamide], the melting point lay within 175 to 177 °C. In data set [1], the EC50 is more than 100 µM. Also, the EC50 in [2] is 4 µM. The half-maximal effective concentration (EC50) in data set [3] was more than 28 µM. In data set [4], the 50% effective concentration (EC50) was more than 54 µM. In data set [5], this compound gave a CC50 of 28 µM. For the same compound, in [6], the half-maximal effective concentration (EC50) is more than 54 µM. For the same compound, the CC50 in data set [7] was more than 100 µM. The compound also gave a CC50 at 5 days in data set [8] of 30 µM. Also, the concentration giving a half-maximal response (EC50) in data set [9] was more than 30 µM. Also, the half-maximal effective concentration (EC50) in [10] was more than 30 µM. The CC50 in data set [11] came to 54 µM.

Take `O=C(Nc1ccc(Cl)cc1)Nc1ccc(-n2nc3cc(Cl)c(Cl)cc3n2)cc1` [10h, 1-[4-(5,6-dichloro-2H-benzo[d][1,2,3]triazol-2-yl)phenyl]-3-(4-chlorophenyl)urea]: the melting point was more than 290 °C. For the same compound, in [1], the 50% effective concentration (EC50) is more than 100 µM. In addition, the concentration for a half-maximal effect (EC50) in data set [2] is more than 100 µM. Besides, the EC50 in [3] is more than 100 µM. Further, the half-maximal effective concentration (EC50) in data set [4] was more than 100 µM. This compound had a CC50 in data set [5] of more than 100 µM. Also, the EC50 in [6] is more than 100 µM. In addition, the CC50 in data set [7] is more than 100 µM. The CC50 at 5 days in [8] is more than 100 µM. Also, the 50% effective concentration (EC50) in data set [9] was more than 100 µM. Further, the EC50 in data set [10] is more than 100 µM. Further, the CC50 in [11] is more than 100 µM.

Take `O=C(Nc1ccc(-n2nc3cc(Cl)c(Cl)cc3n2)cc1)Nc1cccc2ccccc12` [10k, 1-[4-(5,6-dichloro-2H-benzo[d][1,2,3]triazol-2-yl)phenyl]-3-naphtylurea]: the melting point was more than 290 °C. Also, the concentration for a half-maximal effect (EC50) in [1] is more than 100 µM. Besides, in data set [2], the 50% effective concentration (EC50) was more than 100 µM. Moreover, in [3], the EC50 is more than 100 µM. The EC50 in data set [4] was more than 100 µM. The compound also gave a CC50 in [5] of more than 100 µM. The half-maximal effective concentration (EC50) in data set [6] was more than 100 µM. In addition, in data set [7], the CC50 is more than 100 µM. This compound also yielded a CC50 at 5 days in data set [8] of more than 100 µM. Besides, the EC50 in data set [9] was more than 100 µM. Besides, the half-maximal effective concentration (EC50) in data set [10] was more than 100 µM. In [11], the CC50 was more than 100 µM.

As to `N#Cc1ccc(C(=O)Nc2ccc(-n3nc4cc(Cl)c(Cl)cc4n3)cc2)cc1` [8h, N-[4-(5,6-dichloro-2H-benzo[d][1,2,3]triazol-2-yl)phenyl] 4-cyanobenzamide], the melting point is 263 to 265 °C. In addition, the 50% effective concentration (EC50) in data set [1] turned out to be 11 µM. The half-maximal effective concentration (EC50) in data set [2] was determined as 60 µM. In data set [3], the EC50 was more than 100 µM. The EC50 in [4] was more than 100 µM. The CC50 in data set [5] was more than 100 µM. The EC50 in [6] is more than 100 µM. The CC50 in [7] was more than 100 µM. For the same compound, the CC50 at 5 days in [8] was more than 100 µM. Further, in data set [9], the EC50 is more than 100 µM. Further, in data set [10], the EC50 is more than 100 µM. The same compound gave a CC50 in data set [11] of more than 100 µM.

Compound `CCCC(=O)Nc1ccc(-n2nc3cc(Cl)c(Cl)cc3n2)cc1` [6c, N-[4-(5,6-dichloro-2H-benzo[d][1,2,3]triazol-2-yl)phenyl]butanamide] returned a melting point of 243 to 245 °C. Further, the half-maximal effective concentration (EC50) in data set [1] is more than 100 µM. For the same compound, in data set [2], the concentration for a half-maximal effect (EC50) is more than 100 µM. Besides, in [3], the EC50 is more than 100 µM. In addition, the EC50 in [4] is more than 100 µM. In addition, the CC50 in data set [5] was more than 100 µM. Further, the EC50 in [6] is more than 100 µM. Also, the CC50 in [7] is more than 100 µM. The compound also showed a CC50 at 5 days in data set [8] of more than 100 µM. The concentration giving a half-maximal response (EC50) in data set [9] is more than 100 µM. For the same compound, in data set [10], the EC50 was more than 100 µM. The CC50 in data set [11] was more than 100 µM.

`COc1cc(C(=O)Nc2ccc(-n3nnc4cc(Cl)c(Cl)cc43)cc2)cc(OC)c1OC` [7d, N-[4-(5,6-dichloro-1H-benzo[d][1,2,3]triazol-1-yl)phenyl]-3,4,5-trimethoxybenzamide] showed a melting point of 212 to 213 °C. In data set [1], the 50% effective concentration (EC50) was more than 100 µM. Also, in data set [2], the concentration giving a half-maximal response (EC50) amounted to 5 µM. Moreover, the half-maximal effective concentration (EC50) in [3] is more than 77 µM. The half-maximal effective concentration (EC50) in [4] is more than 100 µM. The CC50 in data set [5] was determined as 77 µM. The EC50 in data set [6] worked out at 78 µM. Further, the CC50 in data set [7] is more than 100 µM. Besides, the CC50 at 5 days in data set [8] was 90 µM. Moreover, in [9], the concentration giving a half-maximal response (EC50) is more than 90 µM. The EC50 in [10] is more than 90 µM. This compound showed a CC50 in [11] of more than 100 µM.

`O=C(Nc1ccc(-n2nc3cc(Cl)c(Cl)cc3n2)cc1)c1ccc([N+](=O)[O-])cc1` [8e, N-[4-(5,6-dichloro-2H-benzo[d][1,2,3]triazol-2-yl)phenyl]-4-nitrobenzamide] came in with a melting point of more than 297 °C. Also, the EC50 in data set [1] amounted to 4 µM. Besides, in [2], the EC50 was determined as 33 µM. Also, in data set [3], the concentration giving a half-maximal response (EC50) is more than 100 µM. Moreover, the 50% effective concentration (EC50) in [4] was more than 68 µM. Also, the CC50 in [5] is more than 100 µM. Besides, in data set [6], the EC50 was more than 68 µM. In data set [7], this compound came in with a CC50 of more than 100 µM. Also, the CC50 at 5 days in data set [8] is more than 100 µM. Further, in data set [9], the EC50 is more than 100 µM. The 50% effective concentration (EC50) in data set [10] was more than 100 µM. The CC50 in [11] came to 68 µM.

A word on the EC50: it is the concentration needed to bring the measured effect to its halfway point. One may read the melting point as the temperature of the solid-liquid transition.
